Test results as given in patent publication US20180071242A1, “SUBSTITUTED ACYLANILIDES AND METHODS OF USE THEREOF” (University of Tennessee Research Foundation, priority 2006, published 2018).

Key:
MR = target: T1, MR (Rattus norvegicus, UniProt P22199); experiment: Transient transfection luciferase transactivation assay in HEK-293 cells; type: cell-based; settings: for MR-mediated transactivation, agonist mode (in words): all tested concentrations; for Inhibition of aldosterone-induced MR-mediated transactivation, antagonist mode (in words): with 1 nM aldosterone
T1 construct: expressed in transfected cells; host or cells: HEK-293
T1 sequence (P22199 1-981): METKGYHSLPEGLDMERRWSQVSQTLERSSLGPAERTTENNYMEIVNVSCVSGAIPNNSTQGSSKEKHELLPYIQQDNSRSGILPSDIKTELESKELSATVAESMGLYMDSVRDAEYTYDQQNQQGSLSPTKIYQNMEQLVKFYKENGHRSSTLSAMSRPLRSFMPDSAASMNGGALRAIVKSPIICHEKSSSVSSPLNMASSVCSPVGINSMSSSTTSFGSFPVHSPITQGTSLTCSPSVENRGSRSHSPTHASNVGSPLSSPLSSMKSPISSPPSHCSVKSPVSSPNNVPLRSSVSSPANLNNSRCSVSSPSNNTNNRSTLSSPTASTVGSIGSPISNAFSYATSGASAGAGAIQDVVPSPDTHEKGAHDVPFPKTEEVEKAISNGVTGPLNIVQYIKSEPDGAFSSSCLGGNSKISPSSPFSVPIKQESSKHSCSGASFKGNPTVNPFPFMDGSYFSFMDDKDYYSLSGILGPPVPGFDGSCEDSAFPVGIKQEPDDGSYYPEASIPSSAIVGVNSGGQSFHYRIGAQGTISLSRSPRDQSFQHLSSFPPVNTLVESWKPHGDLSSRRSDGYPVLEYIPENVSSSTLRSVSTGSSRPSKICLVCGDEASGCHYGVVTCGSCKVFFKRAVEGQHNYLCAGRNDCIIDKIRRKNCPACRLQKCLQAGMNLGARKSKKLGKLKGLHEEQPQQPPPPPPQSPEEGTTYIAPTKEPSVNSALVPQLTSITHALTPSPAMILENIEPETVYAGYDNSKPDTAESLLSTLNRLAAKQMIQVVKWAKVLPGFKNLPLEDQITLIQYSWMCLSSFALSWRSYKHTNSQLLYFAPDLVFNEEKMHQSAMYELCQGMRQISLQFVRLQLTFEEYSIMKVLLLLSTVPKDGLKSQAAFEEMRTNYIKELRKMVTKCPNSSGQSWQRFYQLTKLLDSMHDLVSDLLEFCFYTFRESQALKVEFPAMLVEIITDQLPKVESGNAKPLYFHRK

ER-α = target: T2, ER-α (Rattus norvegicus, UniProt P06211); experiment: as above; type: cell-based; settings: for ER-α transactivation, agonist mode (in words): up to the highest tested concentration (1 μM); for Inhibition of estradiol-induced ER-α activity, antagonist mode (in words): with 1 nM estradiol
T2 construct: expressed in transfected cells; host or cells: HEK-293
T2 sequence (P06211 1-600): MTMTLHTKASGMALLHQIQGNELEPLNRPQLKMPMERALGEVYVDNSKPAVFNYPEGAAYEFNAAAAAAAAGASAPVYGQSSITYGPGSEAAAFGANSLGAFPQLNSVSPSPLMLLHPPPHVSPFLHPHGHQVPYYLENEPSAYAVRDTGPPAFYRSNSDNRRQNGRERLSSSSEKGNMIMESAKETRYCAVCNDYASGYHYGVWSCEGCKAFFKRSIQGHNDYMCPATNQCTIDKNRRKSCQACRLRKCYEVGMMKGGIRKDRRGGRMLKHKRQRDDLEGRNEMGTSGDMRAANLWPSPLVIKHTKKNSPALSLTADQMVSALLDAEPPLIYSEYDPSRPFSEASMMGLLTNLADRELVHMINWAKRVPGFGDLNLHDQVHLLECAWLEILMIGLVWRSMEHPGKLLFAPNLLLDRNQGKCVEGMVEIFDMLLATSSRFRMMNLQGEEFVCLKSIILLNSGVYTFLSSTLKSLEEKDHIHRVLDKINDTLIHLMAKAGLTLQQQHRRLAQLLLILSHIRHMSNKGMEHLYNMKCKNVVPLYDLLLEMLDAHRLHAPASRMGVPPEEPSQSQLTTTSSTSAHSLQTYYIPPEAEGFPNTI

CYP2C19 = target: T3, CYP2C19 (Homo sapiens, UniProt P33261); experiment: CYP inhibition screening, recombinant enzyme (fluorescent-based) assay; type: in vitro ADME; settings: for Inhibition of CYP2C19 activity (in words): human, human cDNA-expressed (recombinant) CYP2C19, 30 min
T3 construct: purchased Gentest, BD Biosciences

CYP3A4 = target: T4, CYP3A4 (Homo sapiens, UniProt P08684); experiment: as above; type: in vitro ADME
T4 construct: purchased Gentest, BD Biosciences

PR = target: T5, PR (Rattus norvegicus, UniProt Q63449); experiment: Transient transfection luciferase transactivation assay in HEK-293 cells; type: cell-based; settings: for PR-mediated transactivation, agonist mode (in words): all tested concentrations
T5 construct: expressed in transfected cells; host or cells: HEK-293
T5 sequence (Q63449 1-923): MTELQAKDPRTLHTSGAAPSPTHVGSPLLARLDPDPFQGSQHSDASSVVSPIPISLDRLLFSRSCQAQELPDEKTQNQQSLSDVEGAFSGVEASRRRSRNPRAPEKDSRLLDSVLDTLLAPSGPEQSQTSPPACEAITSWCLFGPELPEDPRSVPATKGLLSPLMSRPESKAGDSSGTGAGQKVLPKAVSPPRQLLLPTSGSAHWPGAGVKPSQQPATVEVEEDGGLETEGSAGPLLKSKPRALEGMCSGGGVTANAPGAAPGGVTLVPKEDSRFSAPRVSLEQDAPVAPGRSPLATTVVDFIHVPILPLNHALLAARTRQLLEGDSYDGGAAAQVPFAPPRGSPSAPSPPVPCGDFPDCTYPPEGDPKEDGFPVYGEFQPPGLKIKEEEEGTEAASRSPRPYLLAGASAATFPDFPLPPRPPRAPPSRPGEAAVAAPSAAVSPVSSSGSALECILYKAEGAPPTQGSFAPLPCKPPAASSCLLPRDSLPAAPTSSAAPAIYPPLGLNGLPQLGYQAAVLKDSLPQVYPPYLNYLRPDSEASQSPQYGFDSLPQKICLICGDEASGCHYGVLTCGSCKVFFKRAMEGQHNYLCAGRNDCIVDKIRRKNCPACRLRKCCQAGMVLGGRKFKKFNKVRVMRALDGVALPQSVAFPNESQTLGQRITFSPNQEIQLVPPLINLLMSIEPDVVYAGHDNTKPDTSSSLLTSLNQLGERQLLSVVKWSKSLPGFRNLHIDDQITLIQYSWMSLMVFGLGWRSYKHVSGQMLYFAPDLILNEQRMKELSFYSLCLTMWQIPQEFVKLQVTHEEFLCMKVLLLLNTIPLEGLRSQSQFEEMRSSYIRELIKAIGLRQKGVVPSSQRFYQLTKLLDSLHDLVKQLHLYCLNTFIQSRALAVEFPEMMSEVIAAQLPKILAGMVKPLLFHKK

[1] = 1 and 10 μM, with 1 nM progesterone

T4 sequence (P08684 whole entry): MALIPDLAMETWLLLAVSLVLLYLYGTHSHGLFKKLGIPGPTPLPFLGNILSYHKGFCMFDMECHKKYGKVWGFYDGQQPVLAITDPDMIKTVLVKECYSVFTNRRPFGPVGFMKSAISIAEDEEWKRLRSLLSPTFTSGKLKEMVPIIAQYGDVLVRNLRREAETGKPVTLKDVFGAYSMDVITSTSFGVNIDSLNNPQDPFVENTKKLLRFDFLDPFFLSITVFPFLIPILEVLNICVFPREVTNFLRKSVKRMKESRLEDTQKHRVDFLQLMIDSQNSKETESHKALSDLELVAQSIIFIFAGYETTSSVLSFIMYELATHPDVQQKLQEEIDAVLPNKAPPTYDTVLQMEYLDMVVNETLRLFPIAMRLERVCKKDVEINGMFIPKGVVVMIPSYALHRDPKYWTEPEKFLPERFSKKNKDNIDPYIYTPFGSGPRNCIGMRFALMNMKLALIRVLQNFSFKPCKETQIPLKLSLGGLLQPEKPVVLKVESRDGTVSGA
T3 sequence (P33261 whole entry): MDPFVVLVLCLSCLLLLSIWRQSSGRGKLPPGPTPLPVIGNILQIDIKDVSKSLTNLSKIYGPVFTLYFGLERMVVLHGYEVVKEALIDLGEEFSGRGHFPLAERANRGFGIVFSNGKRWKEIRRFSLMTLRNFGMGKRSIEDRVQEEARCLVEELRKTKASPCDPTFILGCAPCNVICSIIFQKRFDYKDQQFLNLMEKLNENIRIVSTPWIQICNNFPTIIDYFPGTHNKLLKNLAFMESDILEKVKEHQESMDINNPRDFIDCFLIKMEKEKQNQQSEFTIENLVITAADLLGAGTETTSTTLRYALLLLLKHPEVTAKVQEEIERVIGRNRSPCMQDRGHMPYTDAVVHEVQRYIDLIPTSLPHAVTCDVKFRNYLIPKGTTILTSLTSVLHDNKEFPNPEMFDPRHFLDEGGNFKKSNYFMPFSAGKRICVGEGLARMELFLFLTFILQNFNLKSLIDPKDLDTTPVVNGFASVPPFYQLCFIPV

Row | Compound | MR-mediated transactivation, agonist mode (in words) (MR) | Inhibition of aldosterone-induced MR-mediated transactivation, antagonist mode (in words) (MR) | ER-α transactivation, agonist mode (in words) (ER-α) | Inhibition of estradiol-induced ER-α activity, antagonist mode (in words) (ER-α) | IC50 (CYP2C19) [µM] | Inhibition of CYP2C19 activity (in words) (CYP2C19) | IC50 (CYP3A4) [µM] | Inhibition of PR activity, antagonist mode (in words) (PR; [1]) | PR-mediated transactivation, agonist mode (in words) (PR) | Inhibition of PR activity, antagonist mode (in words) (PR; 0.1 μM and 10 μM) | Increase of PR transactivation, agonist mode (PR; 1 μM) [fold] | Inhibition of PR-mediated transactivation, antagonist mode (in words) (PR; 1 μM) | Increase of PR transactivation, agonist mode (PR; 10 μM) [fold] | PR antagonistic activity relative to RU486 (fold weaker) (PR; versus RU486) | PR agonist potency relative to progesterone (fold weaker) (PR; versus endogenous agonist progesterone)
1 | C[C@](O)(COc1ccc(F)cc1)C(=O)Nc1ccc(C#N)c(C(F)(F)F)c1 [S-(III)] | did not induce | not inhibited | failed to activate | failed to alter | 0.1 | moderate inhibition | > 20 | significantly inhibited | did not induce |  |  |  |  |  | 
2 | C[C@](O)(COc1ccc(C#N)cc1)C(=O)Nc1ccc(C#N)c(Cl)c1 [S-(I), (S)—N-(3-chloro-4-cyanophenyl)-3-(4-cyanophenoxy)-2-hydroxy-2-methylpropanamide] | failed to activate | failed to alter | failed to activate | failed to alter | > 20 |  | > 20 |  | partial agonist activity | significantly partially inhibited | 3 | completely inhibited | 8 | about 1,000 fold | greater than 10,000 fold
3 | C[C@](O)(COc1ccc(Cl)cc1)C(=O)Nc1ccc(C#N)c(C(F)(F)F)c1 [S-(II)] | did not induce | not inhibited | failed to activate | failed to alter | 0.1 | moderate inhibition | > 20 | significantly inhibited | did not induce |  |  |  |  |  | 
